{"source": "patent US20200216499A1", "about": "“ANGIOTENSIN-(1-7) ANALOGS AND METHODS RELATING THERETO” (WAKE FOREST UNIVERSITY HEALTH SCIENCES, priority 2015, published 2020)", "key": {"human ACE": {"target": "human ACE (Homo sapiens, UniProt P12821)", "sequence (P12821 30-1306)": "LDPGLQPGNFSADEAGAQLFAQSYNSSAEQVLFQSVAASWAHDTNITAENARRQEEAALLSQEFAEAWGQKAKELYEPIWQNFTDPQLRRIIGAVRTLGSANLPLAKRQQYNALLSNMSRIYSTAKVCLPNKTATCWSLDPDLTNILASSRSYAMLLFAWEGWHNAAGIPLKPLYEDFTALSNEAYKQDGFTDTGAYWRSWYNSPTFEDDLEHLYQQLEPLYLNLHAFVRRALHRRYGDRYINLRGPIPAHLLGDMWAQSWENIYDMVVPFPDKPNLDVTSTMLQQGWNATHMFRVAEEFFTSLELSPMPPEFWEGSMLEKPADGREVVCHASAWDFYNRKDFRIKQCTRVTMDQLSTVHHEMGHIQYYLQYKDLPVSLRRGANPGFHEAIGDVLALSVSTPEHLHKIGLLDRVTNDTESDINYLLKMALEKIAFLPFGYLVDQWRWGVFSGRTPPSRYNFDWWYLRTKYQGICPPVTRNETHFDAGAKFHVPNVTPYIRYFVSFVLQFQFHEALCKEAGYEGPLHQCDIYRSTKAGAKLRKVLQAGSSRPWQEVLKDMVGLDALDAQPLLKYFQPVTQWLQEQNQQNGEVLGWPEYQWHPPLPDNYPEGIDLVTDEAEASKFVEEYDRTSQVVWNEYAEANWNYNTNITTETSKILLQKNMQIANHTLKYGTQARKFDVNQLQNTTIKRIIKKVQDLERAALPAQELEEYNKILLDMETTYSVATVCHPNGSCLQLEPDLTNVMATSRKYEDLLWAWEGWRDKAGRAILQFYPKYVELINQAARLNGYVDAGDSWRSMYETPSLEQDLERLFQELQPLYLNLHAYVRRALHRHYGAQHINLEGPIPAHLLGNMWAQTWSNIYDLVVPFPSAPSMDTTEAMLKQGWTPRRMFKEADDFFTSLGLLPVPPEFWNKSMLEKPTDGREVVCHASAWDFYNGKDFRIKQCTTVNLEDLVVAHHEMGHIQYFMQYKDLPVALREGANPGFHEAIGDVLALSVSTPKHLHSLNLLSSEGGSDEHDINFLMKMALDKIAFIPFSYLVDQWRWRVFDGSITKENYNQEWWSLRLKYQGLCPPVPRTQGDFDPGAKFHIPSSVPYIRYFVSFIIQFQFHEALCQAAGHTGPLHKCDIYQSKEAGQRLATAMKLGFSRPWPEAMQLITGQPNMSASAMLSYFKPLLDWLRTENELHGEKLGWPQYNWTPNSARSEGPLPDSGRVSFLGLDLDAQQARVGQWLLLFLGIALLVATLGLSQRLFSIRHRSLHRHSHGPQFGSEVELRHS", "test": "Degradation by ACE (HPLC of reaction products)", "format": "in vitro ADME", "conditions": "100 μM peptide, 1.0 μg human ACE, reaction buffer pH 7.4, 2 hours at 37° C., HPLC UV 220 nm", "protocol": "(§1) FIGS. 2A-4D show graphs depicting enzymatic digestion by angiotensin converting enzyme (ACE) of Ang-(1-7), Ang-(1-7)-ACCA^5, Ang-(1-7)-ACCA^6, and Ang-(1-7)-ACCA^3, respectively, in accordance with one aspect. The peptides (100 μM) were incubated with human ACE (1.0 μg) in reaction buffer for 2 hours at 37° C. in a final volume of 100 μL, and the reaction products assessed by HPLC (UV 220 nm).\nAnalogs with ACCA at position 5 (Ang-(1-7)-ACCA^5), position 6 (Ang-(1-7)-ACCA^6), and position 3 (Ang-(1-7)-ACCA^3) were assessed to determine whether the analogs were degraded by ACE. Ang-(1-7) served as the control. Specifically, 100 μM of one of the three analogs or Ang-(1-7) was incubated with 1.0 μg of human ACE in reaction buffer (25 mM Hepes, 125 mM NaCl, 10 μM ZnCl2, pH 7.4) for 2 hours at 37° C. in a final volume of 100 μL. The resultant reaction products were separated by high pressure liquid chromatography (HPLC) on a Phenomenex Aeris Peptide C18 column using a Shimadzu Prominence system and detected by UV analysis at 220 nm."}, "Human DPP III": {"target": "T1, Human DPP III (Homo sapiens, UniProt Q9NY33)", "T1 sequence (Q9NY33 1-737)": "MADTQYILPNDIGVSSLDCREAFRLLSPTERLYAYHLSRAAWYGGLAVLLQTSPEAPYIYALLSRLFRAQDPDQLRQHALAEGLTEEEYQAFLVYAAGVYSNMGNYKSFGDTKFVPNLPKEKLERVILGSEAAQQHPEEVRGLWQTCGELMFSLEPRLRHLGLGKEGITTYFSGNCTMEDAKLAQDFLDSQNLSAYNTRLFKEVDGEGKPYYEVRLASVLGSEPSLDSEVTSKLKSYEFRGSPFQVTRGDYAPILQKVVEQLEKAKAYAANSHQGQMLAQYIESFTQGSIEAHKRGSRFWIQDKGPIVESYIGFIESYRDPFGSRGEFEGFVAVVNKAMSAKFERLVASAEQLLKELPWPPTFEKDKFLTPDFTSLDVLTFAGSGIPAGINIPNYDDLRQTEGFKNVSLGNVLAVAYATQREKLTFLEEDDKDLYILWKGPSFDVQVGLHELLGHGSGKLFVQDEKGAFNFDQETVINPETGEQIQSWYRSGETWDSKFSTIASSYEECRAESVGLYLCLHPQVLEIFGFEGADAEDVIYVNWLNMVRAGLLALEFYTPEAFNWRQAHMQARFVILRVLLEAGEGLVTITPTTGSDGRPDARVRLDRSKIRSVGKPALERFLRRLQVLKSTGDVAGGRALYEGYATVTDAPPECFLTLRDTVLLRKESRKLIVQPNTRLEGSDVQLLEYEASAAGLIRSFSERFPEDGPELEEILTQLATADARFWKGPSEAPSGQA", "test": "Degradation by DPP III (HPLC of reaction products)", "format": "in vitro ADME", "conditions": "100 μM peptide, 1.0 μg human DPP III, 2 hours at 37° C., HPLC UV 220 nm", "protocol": "as §1, with “3A-5D” for “2A-4D”, “dipeptidyl peptidase III (DPE III)” for “angiotensin converting enzyme (ACE)”, “DPE III” for “ACE”\nThe Ang-(1-7) and the analogs Ang-(1-7)-ACCA^5, Ang-(1-7)-ACCA^6, and Ang-(1-7)-ACCA^3 were assessed to determine whether they were resistant to metabolism by the enzyme dipeptidyl peptidase III (DPP III). DPP III metabolizes Ang-(1-7) at different sites as compared to ACE (Chappell et al., Front Endocrinol (Lausanne) 4:201 (pp. 1-13) (2014)). The incubation conditions and detection methods for the metabolism by DPP III were identical to that used to assess degradation by ACE as described in Example 3."}, "[1]": {"conditions": "cited from earlier work"}}, "note": "“Also recorded” adds a separate entry of the source."}
{"smiles": "CC[C@H](C)[C@H](NC(=O)[C@H](Cc1ccc(O)cc1)NC(=O)[C@@H](NC(=O)[C@H](CCCNC(=N)N)NC(=O)[C@@H](N)CC(=O)O)C(C)C)C(=O)N[C@@H](Cc1c[nH]cn1)C(=O)N1CCC[C@H]1C(=O)O", "note": "[Ang-(1-7), Asp-Arg-Val-Tyr-Ile-His-Pro]", "values": [{"measurement": "degradation / resistance to metabolism by ACE", "setting": "human ACE", "value": "degraded to Ang-(1-5) and the dipeptide His-Pro; also recorded: readily degraded"}, {"measurement": "degradation / resistance to metabolism by DPP III", "setting": "Human DPP III", "value": "sequentially degraded; also recorded: readily degraded"}, {"measurement": "half-life in plasma", "setting": "[1]", "value": 30, "unit": "min"}]}
